The values that follow come from PubChem BioAssay AID248 (DTP/NCI, 2004).

The subject of the assay is L1210 leukemia ip in BDF1 mice, survival T/C. The assay can be described thus: NCI In Vivo Anticancer Drug Screen. Data for tumor model L1210 Leukemia (intraperitoneal) in B6D2F1 (BDF1) mice. The note with it: endpoint: mean survival time, higher = longer survival. A digest of the protocol: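 Ratio derived from survival: compound-dosed mice over vehicle-dosed mice, all bearing a transplantable tumor.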

Where [1] appears, read: dose: 50.0 mg/kg/injection, schedule: Q01DX009 (ip), vehicle: saline with Tween-80.
Setting [2] is: dose: 100.0 mg/kg/injection, schedule: Q01DX009 (ip), vehicle: saline with Tween-80.
Where [3] appears, read: dose: 200.0 mg/kg/injection, schedule: Q01DX009 (ip), vehicle: saline with Tween-80.
The mark [4] stands for this setting: dose: 100.0 mg/kg/injection, schedule: Q04DX003 (ip), vehicle: Klucel (hydroxypropylcellulose) (HPC).
Where [5] appears, read: dose: 200.0 mg/kg/injection, schedule: Q04DX003 (ip), vehicle: Klucel (hydroxypropylcellulose) (HPC).
The mark [6] stands for this setting: dose: 100.0 mg/kg/injection, schedule: Q01DX001 (ip), vehicle: carboxymethylcellulose (CMC).
[7] abbreviates: dose: 200.0 mg/kg/injection, schedule: Q01DX001 (ip), vehicle: carboxymethylcellulose (CMC).
[8] abbreviates: dose: 400.0 mg/kg/injection, schedule: Q01DX001 (ip), vehicle: carboxymethylcellulose (CMC).
Where [9] appears, read: dose: 100.0 mg/kg/injection, schedule: Q04DX003 (ip), vehicle: saline with Tween-80.
Where [10] appears, read: dose: 200.0 mg/kg/injection, schedule: Q04DX003 (ip), vehicle: saline with Tween-80.
[11] abbreviates: dose: 400.0 mg/kg/injection, schedule: Q01DX009 (ip), vehicle: saline with Tween-80.
Where [12] appears, read: dose: 400.0 mg/kg/injection, schedule: Q04DX003 (ip), vehicle: saline with Tween-80.

Molecules are shown by their SMILES. “And” between values parts separate entries of the source, which are not always exact repeats. Identical values can stand only once. Toxic doses and inconclusive results are not listed.

In the case of `COc1ccc(/C(N=Nc2ccccc2)=N/N=C(N)N)cc1`, the T/C was 105 % of control (dose: 20.0 mg/kg/injection, schedule: Q01DX001 (ip), vehicle: steriod suspending solution); 94 % of control (dose: 40.0 mg/kg/injection, schedule: Q01DX001 (ip), vehicle: steriod suspending solution); 96 % of control (dose: 80.0 mg/kg/injection, schedule: Q01DX001 (ip), vehicle: steriod suspending solution).
`O=C1c2ccccc2C(=O)N1CNc1ccc2c(c1)OCO2`: the T/C under setting [1] was 108 % of control, the T/C under setting [2] is 97 % of control and the T/C under setting [3] is 90 % of control.
`CN1CCCC2C(c3ccccc3)C(C3=NCCCC3)C(c3ccccc3)CC21` (stereo not drawn): where the note is “dose: 100.0 mg/kg/injection, schedule: Q01DX001 (ip), vehicle: saline”, the T/C is 88 % of control.
In the case of `O=C(Cc1ccc(N(CCCl)CCCl)cc1)NC1CCCC1`, the T/C reads like this: under setting [4], 117 % of control; under setting [5], 120 % of control; (dose: 266.0 mg/kg/injection, schedule: Q04DX003 (ip), vehicle: Klucel (hydroxypropylcellulose) (HPC)) 107 % of control and 112 % of control; (dose: 400.0 mg/kg/injection, schedule: Q04DX003 (ip), vehicle: Klucel (hydroxypropylcellulose) (HPC)) 102 % of control and 119 % of control.
Regarding `COc1ccccc1-c1ccc([N+](=O)[O-])cc1[N+](=O)[O-]`, the T/C under setting [6] was 100 % of control, the T/C under setting [7] was 105 % of control and the T/C under setting [8] is 102 % of control.
`Cc1ccc(NC2OC(CO)C(O)C(O)C2O)cc1` (stereo not drawn): the T/C (dose: 75.0 mg/kg/injection, schedule: Q01DX001 (ip), vehicle: steriod suspending solution) is 99 % of control; the T/C (dose: 150.0 mg/kg/injection, schedule: Q01DX001 (ip), vehicle: steriod suspending solution) is 94 % of control; the T/C (dose: 300.0 mg/kg/injection, schedule: Q01DX001 (ip), vehicle: steriod suspending solution) is 94 % of control.
In the case of `O=C1c2ccccc2C(=O)N1CCc1ccccn1`, the T/C under setting [1] was 101 % of control; the T/C under setting [2] was 95 % of control; the T/C under setting [9] is 102 % of control; the T/C under setting [3] was 93 % of control; the T/C under setting [10] is 101 % of control.
For the compound `CCCCCCCCCCOP(N)(=O)OCCCCCCCCCC`, the T/C by setting is: (dose: 25.0 mg/kg/injection, schedule: Q01DX009 (ip), vehicle: carboxymethylcellulose (CMC)) 98 % of control; (dose: 50.0 mg/kg/injection, schedule: Q01DX009 (ip), vehicle: carboxymethylcellulose (CMC)) 104 % of control; (dose: 50.0 mg/kg/injection, schedule: Q04DX003 (ip), vehicle: carboxymethylcellulose (CMC)) 89 % of control; (dose: 100.0 mg/kg/injection, schedule: Q01DX009 (ip), vehicle: carboxymethylcellulose (CMC)) 93 % of control; (dose: 100.0 mg/kg/injection, schedule: Q04DX003 (ip), vehicle: carboxymethylcellulose (CMC)) 94 % of control; (dose: 225.0 mg/kg/injection, schedule: Q01DX009 (ip), vehicle: carboxymethylcellulose (CMC)) 104 % of control.
As to `CCc1cc(Cl)ccc1OCC(=O)O`, the T/C was 97 % of control under setting [2] and 105 % of control under setting [3].
Turning to `CC[N+](CC)(CC)CCNC(C)=O`, the T/C is, setting by setting: (dose: 100.0 mg/kg/injection, schedule: Q01DX009 (ip), vehicle: saline) 111 % of control; (dose: 200.0 mg/kg/injection, schedule: Q01DX009 (ip), vehicle: saline) 100 % of control; (dose: 400.0 mg/kg/injection, schedule: Q01DX009 (ip), vehicle: saline) 105 % of control.
In the case of `Cc1nn2c(=O)[nH]cnc2c1Cl`, the T/C reads like this: under setting [2], 108 % of control; under setting [9], 91 % of control; under setting [3], 108 % of control; under setting [10], 89 % of control; under setting [11], 105 % of control; under setting [12], 92 % of control.
Turning to `Cc1ccc(S(=O)(=O)OCC2C3C=CC(c4ccccc43)C2COS(=O)(=O)c2ccc(C)cc2)cc1` (stereo not drawn), the T/C is 96 % of control (dose: 75.0 mg/kg/injection, schedule: Q01DX009 (ip), vehicle: saline with Tween-80); 91 % of control (dose: 150.0 mg/kg/injection, schedule: Q01DX009 (ip), vehicle: saline with Tween-80); 90 % of control (dose: 300.0 mg/kg/injection, schedule: Q01DX009 (ip), vehicle: saline with Tween-80).
With `CC(=O)NC(CSC(c1ccccc1)(c1ccccc1)c1ccccc1)C(=O)O` (stereo not drawn), the T/C runs as follows: (dose: 25.0 mg/kg/injection, schedule: Q01DX009 (ip), vehicle: saline) 102 % of control; (dose: 50.0 mg/kg/injection, schedule: Q01DX009 (ip), vehicle: saline) 96 % of control.
Regarding `CN(C)C(=S)N1CC2C3CCC(O3)C2C1` (stereo not drawn), the T/C under setting [4] was 95 % of control and the T/C under setting [5] was 104 % of control.
Turning to `O=[N+]([O-])c1ccc(-c2ccccc2Cl)c([N+](=O)[O-])c1`, the T/C is, setting by setting: under setting [6], 91 % of control; under setting [7], 91 % of control; under setting [8], 97 % of control.
As for `CCCCCCCCCCOc1ccc2ccccc2c1`, the T/C is, setting by setting: under setting [9], 100 % of control; under setting [10], 94 % of control; under setting [12], 91 % of control.
Consider `CCN(CC)CCN(C)c1ccc(CO)c2sc3cc(Cl)ccc3c(=O)c12`, for which the T/C runs as follows: (dose: 7.81 mg/kg/injection, schedule: Q01DX009 (ip), vehicle: saline) 101 % of control; (dose: 15.63 mg/kg/injection, schedule: Q01DX009 (ip), vehicle: saline) 101 % of control; (dose: 31.25 mg/kg/injection, schedule: Q01DX009 (ip), vehicle: saline) 100 % of control; (dose: 62.5 mg/kg/injection, schedule: Q01DX009 (ip), vehicle: saline) 99 % of control.
For `COc1ccc(CN(CCN(C)C)c2ccccn2)cc1`, the T/C (dose: 12.5 mg/kg/injection, schedule: Q01DX009 (ip), vehicle: Klucel (hydroxypropylcellulose) (HPC)) was 97 % of control; the T/C (dose: 12.5 mg/kg/injection, schedule: Q04DX003 (ip), vehicle: Klucel (hydroxypropylcellulose) (HPC)) was 94 % of control; the T/C (dose: 25.0 mg/kg/injection, schedule: Q01DX009 (ip), vehicle: Klucel (hydroxypropylcellulose) (HPC)) was 94 % of control; the T/C (dose: 25.0 mg/kg/injection, schedule: Q04DX003 (ip), vehicle: Klucel (hydroxypropylcellulose) (HPC)) was 93 % of control; the T/C (dose: 50.0 mg/kg/injection, schedule: Q01DX009 (ip), vehicle: Klucel (hydroxypropylcellulose) (HPC)) was 93 % of control; the T/C (dose: 50.0 mg/kg/injection, schedule: Q04DX003 (ip), vehicle: Klucel (hydroxypropylcellulose) (HPC)) is 93 % of control and 94 % of control.
In the case of `CC(=O)Nc1ccc(S(=O)(=O)Nc2ccccc2C(F)(F)F)cc1`, the T/C is, setting by setting: under setting [2], 93 % of control; under setting [3], 104 % of control; under setting [11], 91 % of control.
As to `CC1CNC(c2ccc(NC(=O)c3ccc(C(=O)Nc4ccc(C5=NC(C)CN5)cc4)c(NC(=O)Nc4cccc(C5=NC(C)CN5)c4)c3)cc2)=N1` (stereo not drawn), the T/C (dose: 1.88 mg/kg/injection, schedule: Q01DX Z (ip), vehicle: saline) was 116 % of control; the T/C (dose: 3.75 mg/kg/injection, schedule: Q01DX Z (oral), vehicle: saline) is 103 % of control; the T/C (dose: 7.5 mg/kg/injection, schedule: Q01DX Z (ip), vehicle: saline) was 153 % of control; the T/C (dose: 7.5 mg/kg/injection, schedule: Q01DX Z (oral), vehicle: saline) was 106 % of control; the T/C (dose: 15.0 mg/kg/injection, schedule: Q01DX Z (oral), vehicle: saline) was 101 % of control; the T/C (dose: 30.0 mg/kg/injection, schedule: Q01DX Z (oral), vehicle: saline) is 117 % of control. Moreover, the T/C by setting is: (dose: 62.5 mg/kg/injection, schedule: Q01DX010 (oral), vehicle: saline) 99 % of control; (dose: 125.0 mg/kg/injection, schedule: Q01DX010 (oral), vehicle: saline) 100 % of control; (dose: 250.0 mg/kg/injection, schedule: Q01DX010 (oral), vehicle: saline) 92 % of control.
As to `CSc1cccc(NC2=NCCO2)c1`, the T/C is 103 % of control (dose: 50.0 mg/kg/injection, schedule: Q04DX002 (ip), vehicle: saline with Tween-80); 98 % of control (dose: 100.0 mg/kg/injection, schedule: Q04DX002 (ip), vehicle: saline with Tween-80); 88 % of control (dose: 200.0 mg/kg/injection, schedule: Q04DX002 (ip), vehicle: saline with Tween-80); 95 % of control (dose: 400.0 mg/kg/injection, schedule: Q04DX002 (ip), vehicle: saline with Tween-80).
